Data set [1] deals with yellow nutsedge (Cyperus esculentus). The experiment in a line: Herbicide effect by foliar spray on pot-grown yellow nutsedge in greenhouse (Test Example 1). The conditions noted are these: evaluated 25 days after treatment, level 0-10. In kind it is in vivo. As to the method:
(§1) Evaluation of phytotoxicity against a crop was shown by “no” when almost no phytotoxicity was observed, “low” when a low level phytotoxicity was observed, “medium” when a medium level phytotoxicity was observed and “high” when a high level phytotoxicity was observed.
(§2) A plastic pot of 11 cm in diameter and 8 cm in depth was filled with field soil. A tuber of yellow nutsedge (Cyperus esculentus) was planted and grown in a greenhouse for 21 days.
(§3) An emulsion of Compound A-1 was prepared by sufficiently mixing 5 parts of Compound A-1, 6 parts of Sorpol 3005×(surfactant, produced by Toho Chemical) and 89 parts of xylene.
(§4) Each of single use of an emulsion of Compound A-1, single use of an formulation of Chlorimuron-ethyl (commercial name: Classic, produced by Du Pont, containing 25% of Chlorimuron-ethyl), and a mixed composition of an emulsion of Compound A-1 and an formulation of Chlorimuron-ethyl, were diluted with water containing 1% Agri-dex (produced by Helena). Respective dilutions were uniformly sprayed from upper side onto foliages of yellow nutsedge grown as described above with a small sprayer such that the amounts of the active ingredients were the amounts shown in Table 4. […]
(§5) After the treatment, they were raised in a greenhouse for 25 days and the effect against weeds was evaluated. In addition, after 14 days of the treatment, the phytotoxicity to soybean was evaluated.

The next data set concerns soybean. The experiment in a line: Phytotoxicity to soybean sown immediately after treatment (Test Example 1). The conditions noted are these: evaluated after 14 days. In kind it is in vivo. The protocol:
as §1, §2, §3, §4, §5

For `CCOC(=O)c1ccccc1S(=O)(=O)NC(=O)Nc1nc(Cl)cc(OC)n1` [Chlorimuron-ethyl, ethyl 2-(4-chloro-6-methoxypyrimidin-2-ylcarbamoylsulfamoyl)benzoate], the results for the “Herbicide Effect yellow nutsedge” value in data set [1] (5 g/ha active ingredient) and in data set [1] (20 g/ha active ingredient) were 1 and 2, respectively. The Phytotoxicity soybean entry with soybean (5 g/ha active ingredient) and with soybean (20 g/ha active ingredient) was “no” each time.
